Results: PubChem BioAssay (NCI)
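Tested at 5 concentrations; 48 h exposure; 96-well plates; endpoints linearly interpolated, else capped at highest concentration. TGI: total growth inhibition.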

Assays:
Assay in all cases: NCI-60 cell line screen, 48 h
HCC-2998 colon = tested on: HCC-2998 colon
A498 renal = tested on: A498 renal
SN12C renal = tested on: SN12C renal
CCRF-CEM leukemia = tested on: CCRF-CEM leukemia
SF-539 CNS = tested on: SF-539 CNS
CAKI-1 renal = tested on: CAKI-1 renal
IGROV1 ovarian = tested on: IGROV1 ovarian
OVCAR-8 ovarian = tested on: OVCAR-8 ovarian
OVCAR-5 ovarian = tested on: OVCAR-5 ovarian
SK-OV-3 ovarian = tested on: SK-OV-3 ovarian
HCT-116 colon = tested on: HCT-116 colon
UO-31 renal = tested on: UO-31 renal
UACC-257 melanoma = tested on: UACC-257 melanoma
OVCAR-3 ovarian = tested on: OVCAR-3 ovarian
MALME-3M melanoma = tested on: MALME-3M melanoma
NCI/ADR-RES ovarian = tested on: NCI/ADR-RES ovarian
SW-620 colon = tested on: SW-620 colon
NCI-H23 lung = tested on: NCI-H23 lung
NCI-H226 lung = tested on: NCI-H226 lung
COLO 205 colon = tested on: COLO 205 colon

Compound | TGI (HCC-2998 colon) | TGI (A498 renal) | TGI (SN12C renal) | TGI (CCRF-CEM leukemia) | TGI (SF-539 CNS) | TGI (CAKI-1 renal) | TGI (IGROV1 ovarian) | TGI (OVCAR-8 ovarian) | TGI (OVCAR-5 ovarian) | TGI (SK-OV-3 ovarian) | TGI (HCT-116 colon) | TGI (UO-31 renal) | TGI (UACC-257 melanoma) | TGI (OVCAR-3 ovarian) | TGI (MALME-3M melanoma) | TGI (NCI/ADR-RES ovarian) | TGI (SW-620 colon) | TGI (NCI-H23 lung) | TGI (NCI-H226 lung) | TGI (COLO 205 colon)
C=CCNC(=O)CN(CC(=O)OC)C1CCCCC1N(CC(=O)OC)CC(=O)OC (stereo not given) | > 100 µM | > 100 µM | > 100 µM | > 100 µM | > 100 µM | > 100 µM | > 100 µM | > 100 µM | > 100 µM | > 100 µM | > 100 µM | > 100 µM | > 100 µM | > 100 µM | > 100 µM | > 100 µM | > 100 µM | > 100 µM | > 100 µM | –
Cc1cn(C2CC(O)C(Cn3nncc3Cn3ncc(=O)[nH]c3=O)O2)c(=O)[nH]c1=O (stereo not given) | > 100 µM | > 100 µM | > 100 µM | > 100 µM | > 100 µM | > 100 µM | > 100 µM | > 100 µM | > 100 µM | > 100 µM | > 100 µM | > 100 µM | > 100 µM | > 100 µM | > 100 µM | > 100 µM | > 100 µM | > 100 µM | > 100 µM | > 100 µM
CC(C)=CC(=O)OC1C2C(C)=CC(O)C(O)C2(C)C2C3(O)OCC24C(CC(=O)OC14)C(C)C3O (stereo not given) | 0.572 µM | 4.07 µM | 6.9 µM | 0.624 µM | 0.187 µM | 13.9 µM | 0.706 µM | 0.82 µM | 3.79 µM | – | 0.381 µM | 8.57 µM | 2.43 µM | 0.171 µM | 0.0844 µM | 123 µM | 4.81 µM | 0.387 µM | 0.388 µM | 2.77 µM
O=C(O)C12CC3CC(C1)C2C=C3P(=O)(O)O (stereo not given) | > 100 µM | – | > 100 µM | > 100 µM | – | > 100 µM | > 100 µM | > 100 µM | > 100 µM | > 100 µM | > 100 µM | > 100 µM | > 100 µM | > 100 µM | > 100 µM | – | > 100 µM | > 100 µM | > 100 µM | > 100 µM
